The results in this text go back to ChEMBL document CHEMBL1140654 (Bioorg Med Chem Lett, 2007).

The structures appear in SMILES notation.

As a reminder, the IC50 is the concentration needed to halve the response being measured.

One assay deals with U-937. Briefly: Inhibition of TNFalpha production in U937 cells. As to conditions: Homo sapiens.
The test system of the next assay is Rattus norvegicus. Briefly: Inhibition of TNFalpha production in rat at 40 mg/kg, ip administered 1 hr prior to LPS challenge. The format is functional. The conditions noted are these: route intraperitoneal. Details: scale not given: the % may be the effect or the level left.
Assay [1] has as its target T1, Inhibitor of nuclear factor kappa-B kinase subunit beta (Homo sapiens, UniProt O14920).
T1 sequence (O14920 whole entry): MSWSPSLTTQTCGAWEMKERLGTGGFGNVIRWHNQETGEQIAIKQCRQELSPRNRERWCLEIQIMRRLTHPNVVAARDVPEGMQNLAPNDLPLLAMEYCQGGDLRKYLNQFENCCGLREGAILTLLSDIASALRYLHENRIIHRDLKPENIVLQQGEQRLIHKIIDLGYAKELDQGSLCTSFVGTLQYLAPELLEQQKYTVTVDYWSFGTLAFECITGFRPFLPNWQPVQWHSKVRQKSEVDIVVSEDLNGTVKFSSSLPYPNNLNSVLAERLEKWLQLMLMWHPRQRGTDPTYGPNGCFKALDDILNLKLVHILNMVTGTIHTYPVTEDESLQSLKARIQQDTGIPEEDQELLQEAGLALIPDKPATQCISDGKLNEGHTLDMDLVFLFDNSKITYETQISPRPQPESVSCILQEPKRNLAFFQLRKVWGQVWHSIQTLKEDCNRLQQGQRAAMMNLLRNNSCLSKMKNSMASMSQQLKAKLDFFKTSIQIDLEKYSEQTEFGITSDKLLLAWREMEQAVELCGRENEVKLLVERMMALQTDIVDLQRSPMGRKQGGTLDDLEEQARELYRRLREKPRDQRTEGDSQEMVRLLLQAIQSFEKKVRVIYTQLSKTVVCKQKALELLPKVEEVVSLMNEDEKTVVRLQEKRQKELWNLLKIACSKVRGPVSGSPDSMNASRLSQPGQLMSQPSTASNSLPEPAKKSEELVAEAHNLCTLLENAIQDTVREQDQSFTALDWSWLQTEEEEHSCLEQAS
Briefly: Inhibition of IKK2.

Assay [2] deals with Ribosomal protein S6 kinase alpha-5 (Homo sapiens, UniProt O75582). The experiment in a line: Inhibition of MSK1.
Assay [3] has as its target Mitogen-activated protein kinase 14 (Homo sapiens, UniProt Q16539). The experiment in a line: Inhibition of p38alpha.
Assay [4] concerns the target Mitogen-activated protein kinase 1 (Homo sapiens, UniProt P28482). Briefly: Inhibition of ERK2.
For assay [5], the target named is Mitogen-activated protein kinase 9 (Homo sapiens, UniProt P45984). Briefly: Inhibition of JNK2.
Assay [6] addresses MAP kinase-activated protein kinase 3 (Homo sapiens, UniProt Q16644). The experiment in a line: Inhibition of MK3. The format is single protein.
In assay [7] the target is T2, MAP kinase-activated protein kinase 5 (Homo sapiens, UniProt Q8IW41).
T2 sequence (Q8IW41 whole entry): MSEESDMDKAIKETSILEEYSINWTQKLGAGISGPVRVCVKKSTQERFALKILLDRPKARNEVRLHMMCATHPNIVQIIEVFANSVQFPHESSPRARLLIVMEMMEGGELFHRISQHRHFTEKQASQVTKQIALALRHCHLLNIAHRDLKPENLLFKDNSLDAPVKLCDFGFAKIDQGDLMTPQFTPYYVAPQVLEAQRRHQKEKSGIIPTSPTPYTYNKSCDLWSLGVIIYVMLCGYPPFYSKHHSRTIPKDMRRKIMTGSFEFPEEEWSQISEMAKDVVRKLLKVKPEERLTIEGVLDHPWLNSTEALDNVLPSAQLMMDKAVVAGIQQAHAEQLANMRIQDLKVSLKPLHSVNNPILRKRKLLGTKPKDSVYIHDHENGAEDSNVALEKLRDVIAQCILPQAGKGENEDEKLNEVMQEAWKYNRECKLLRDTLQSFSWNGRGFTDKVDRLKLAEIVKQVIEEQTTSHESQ
The experiment in a line: Inhibition of PRAK.

Assay [8] concerns the target MAP kinase-activated protein kinase 2 (Homo sapiens, UniProt P49137).
In assay [9] the target is MAP kinase-interacting serine/threonine-protein kinase 1 (Homo sapiens, UniProt Q9BUB5). The experiment in a line: Inhibition of MNK1.
MAP kinase-interacting serine/threonine-protein kinase 1, sequence (Q9BUB5 whole entry): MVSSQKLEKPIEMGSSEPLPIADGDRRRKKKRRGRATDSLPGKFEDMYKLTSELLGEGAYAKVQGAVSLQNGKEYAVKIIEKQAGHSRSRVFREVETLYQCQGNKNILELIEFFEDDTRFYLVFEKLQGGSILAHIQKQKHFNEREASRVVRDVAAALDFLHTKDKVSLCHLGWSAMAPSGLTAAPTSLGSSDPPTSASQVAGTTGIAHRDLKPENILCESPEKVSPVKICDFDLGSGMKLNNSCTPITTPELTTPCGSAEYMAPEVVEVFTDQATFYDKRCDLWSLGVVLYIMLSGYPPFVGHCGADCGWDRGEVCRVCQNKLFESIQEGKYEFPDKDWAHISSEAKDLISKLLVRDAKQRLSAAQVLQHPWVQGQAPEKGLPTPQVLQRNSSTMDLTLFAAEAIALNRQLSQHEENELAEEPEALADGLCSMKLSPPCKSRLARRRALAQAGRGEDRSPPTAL

MAP kinase-activated protein kinase 3, sequence (Q16644 whole entry): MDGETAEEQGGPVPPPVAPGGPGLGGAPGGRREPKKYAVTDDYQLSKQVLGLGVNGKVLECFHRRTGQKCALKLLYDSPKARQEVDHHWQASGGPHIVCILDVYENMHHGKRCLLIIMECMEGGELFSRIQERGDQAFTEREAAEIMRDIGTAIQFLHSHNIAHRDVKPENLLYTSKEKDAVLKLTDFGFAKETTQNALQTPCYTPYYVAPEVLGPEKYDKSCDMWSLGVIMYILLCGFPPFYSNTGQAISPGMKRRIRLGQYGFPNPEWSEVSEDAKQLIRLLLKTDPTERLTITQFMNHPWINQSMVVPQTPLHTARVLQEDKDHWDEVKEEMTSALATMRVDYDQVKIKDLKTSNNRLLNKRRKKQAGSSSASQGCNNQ
Ribosomal protein S6 kinase alpha-5, sequence (O75582 whole entry): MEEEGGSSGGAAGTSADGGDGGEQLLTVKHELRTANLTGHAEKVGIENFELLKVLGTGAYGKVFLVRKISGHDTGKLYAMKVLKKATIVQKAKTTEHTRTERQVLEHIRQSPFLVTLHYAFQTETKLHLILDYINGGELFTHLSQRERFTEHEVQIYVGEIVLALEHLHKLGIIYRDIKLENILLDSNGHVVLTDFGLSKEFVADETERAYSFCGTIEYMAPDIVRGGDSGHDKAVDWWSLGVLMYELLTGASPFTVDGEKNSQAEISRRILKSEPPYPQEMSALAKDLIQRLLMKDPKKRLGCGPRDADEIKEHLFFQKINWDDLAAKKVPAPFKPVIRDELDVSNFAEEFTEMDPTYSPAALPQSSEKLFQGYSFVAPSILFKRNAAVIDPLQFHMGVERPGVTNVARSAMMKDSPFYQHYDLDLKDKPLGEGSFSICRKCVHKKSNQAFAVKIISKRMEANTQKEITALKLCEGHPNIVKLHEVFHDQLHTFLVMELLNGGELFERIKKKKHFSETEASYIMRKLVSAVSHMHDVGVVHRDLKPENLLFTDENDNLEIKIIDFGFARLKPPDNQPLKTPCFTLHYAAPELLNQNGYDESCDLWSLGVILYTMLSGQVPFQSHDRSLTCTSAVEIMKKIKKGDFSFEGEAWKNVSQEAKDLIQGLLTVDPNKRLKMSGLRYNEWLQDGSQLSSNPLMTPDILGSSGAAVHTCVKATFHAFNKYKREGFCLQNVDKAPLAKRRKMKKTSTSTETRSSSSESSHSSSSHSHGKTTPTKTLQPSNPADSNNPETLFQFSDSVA
Mitogen-activated protein kinase 14, sequence (Q16539 whole entry): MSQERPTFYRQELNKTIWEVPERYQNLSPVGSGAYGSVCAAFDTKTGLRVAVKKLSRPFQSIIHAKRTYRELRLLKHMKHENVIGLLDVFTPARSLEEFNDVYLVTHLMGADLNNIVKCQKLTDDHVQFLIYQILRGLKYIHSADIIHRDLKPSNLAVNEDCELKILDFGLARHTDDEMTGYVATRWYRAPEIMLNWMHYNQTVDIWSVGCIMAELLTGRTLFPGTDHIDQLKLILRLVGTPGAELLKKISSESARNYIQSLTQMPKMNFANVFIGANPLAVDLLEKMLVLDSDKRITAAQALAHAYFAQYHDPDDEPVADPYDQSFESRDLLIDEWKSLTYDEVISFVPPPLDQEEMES
MAP kinase-activated protein kinase 2, sequence (P49137 whole entry): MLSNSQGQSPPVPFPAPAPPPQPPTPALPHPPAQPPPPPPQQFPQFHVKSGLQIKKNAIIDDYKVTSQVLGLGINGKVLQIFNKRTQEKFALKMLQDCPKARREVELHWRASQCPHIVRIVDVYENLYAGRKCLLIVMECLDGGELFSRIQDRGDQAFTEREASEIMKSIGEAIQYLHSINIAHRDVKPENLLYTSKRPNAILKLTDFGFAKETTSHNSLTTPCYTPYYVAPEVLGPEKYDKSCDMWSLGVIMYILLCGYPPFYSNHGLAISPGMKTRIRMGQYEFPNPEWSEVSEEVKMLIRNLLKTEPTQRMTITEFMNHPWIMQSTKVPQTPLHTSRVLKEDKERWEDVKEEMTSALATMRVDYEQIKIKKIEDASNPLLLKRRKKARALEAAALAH
Mitogen-activated protein kinase 9, sequence (P45984 whole entry): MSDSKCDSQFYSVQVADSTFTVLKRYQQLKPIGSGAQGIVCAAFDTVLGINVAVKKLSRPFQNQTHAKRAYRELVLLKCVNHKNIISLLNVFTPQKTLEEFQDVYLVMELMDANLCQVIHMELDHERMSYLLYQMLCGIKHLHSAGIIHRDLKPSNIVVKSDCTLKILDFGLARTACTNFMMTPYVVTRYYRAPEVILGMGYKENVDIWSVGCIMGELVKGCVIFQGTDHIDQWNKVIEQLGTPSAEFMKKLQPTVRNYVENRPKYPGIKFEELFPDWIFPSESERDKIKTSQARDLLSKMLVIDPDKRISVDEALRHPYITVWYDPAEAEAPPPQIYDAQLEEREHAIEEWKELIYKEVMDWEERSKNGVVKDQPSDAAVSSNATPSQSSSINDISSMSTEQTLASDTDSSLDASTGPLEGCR
Mitogen-activated protein kinase 1, sequence (P28482 whole entry): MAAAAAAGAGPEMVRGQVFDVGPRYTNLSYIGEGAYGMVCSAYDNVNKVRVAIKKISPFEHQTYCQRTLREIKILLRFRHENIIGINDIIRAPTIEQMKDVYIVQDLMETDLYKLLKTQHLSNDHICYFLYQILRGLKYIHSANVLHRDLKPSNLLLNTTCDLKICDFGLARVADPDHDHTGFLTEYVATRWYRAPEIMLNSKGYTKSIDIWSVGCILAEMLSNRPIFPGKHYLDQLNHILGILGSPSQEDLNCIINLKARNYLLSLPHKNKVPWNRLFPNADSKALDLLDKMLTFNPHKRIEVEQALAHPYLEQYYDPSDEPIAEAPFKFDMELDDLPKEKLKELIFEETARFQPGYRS

Compound `CCCOC(=O)C1c2[nH]c3ccc(OC)cc3c2C2CCN1C2` (centres undefined) registered an IC50 in the assay with U-937 of 0.83 µM. Moreover, the Activity in the assay with Rattus norvegicus came out at 84%.
The compound `CCOC(=O)C1c2[nH]c3ccc(OC)cc3c2C2CCN1C2` (centres undefined) had an IC50 with U-937 of 5.6 µM.
As to `COc1ccc2[nH]c3c(c2c1)CCNC3C(=O)O` (centres undefined), the IC50 in [1] was more than 200 µM; in assay [2] it was more than 200 µM; in assay [3], more than 100 µM; in assay [4] it was more than 100 µM; in assay [5], more than 200 µM; in assay [6], more than 200 µM. The compound also returned a 50% inhibitory concentration (IC50) in [7] of 19 µM.
The compound `COc1ccc2[nH]c3c(c2c1)C1CCCN(C1)C3C(=O)O` (centres undefined) yielded an IC50 in assay [6] of 160 µM.
Compound `COc1ccc2[nH]c3c(c2c1)C1CCN(C1)C3C(=O)OCc1ccccc1` (centres undefined) displayed an IC50 in the assay with U-937 of 1.7 µM.
Still for that read-out and setting: the figure for `COc1ccc2[nH]c3c(c2c1)C1CCN(C1)C3C(=O)OC(C)c1ccccc1` (centres undefined) is 10.3 µM.
As to `CC(=O)Oc1ccc2[nH]c3c(c2c1)CCNC3C(=O)O` (centres undefined), in [8], inhibition was half-maximal at 170 µM (IC50).
In the case of `COc1ccc2[nH]c3c(c2c1)C1CCN(C1)C3C(=O)O` (centres undefined), the IC50 is more than 200 µM in [1]; more than 200 µM in assay [2]; more than 100 µM in assay [3]; more than 200 µM in assay [9]; 80.8 µM in the assay on U-937; more than 200 µM in assay [5]. For the same compound, the IC50 in [6] worked out at 90 µM; in assay [7] it was 24 µM.
With `C=CCOC(=O)C1c2[nH]c3ccc(OC)cc3c2C2CCN1C2` (centres undefined), the concentration for half-maximal inhibition (IC50) in the assay with U-937 stood at 14.4 µM.
With `COc1ccc2[nH]c3c(c2c1)CCNC3c1nnn[nH]1` (centres undefined), in assay [8], the IC50 is 130 µM.
